Molecules are shown by their SMILES.

The test concerns the target T1, Adenosine receptor A1 (Rattus norvegicus, UniProt P25099).
T1 sequence (P25099 whole entry): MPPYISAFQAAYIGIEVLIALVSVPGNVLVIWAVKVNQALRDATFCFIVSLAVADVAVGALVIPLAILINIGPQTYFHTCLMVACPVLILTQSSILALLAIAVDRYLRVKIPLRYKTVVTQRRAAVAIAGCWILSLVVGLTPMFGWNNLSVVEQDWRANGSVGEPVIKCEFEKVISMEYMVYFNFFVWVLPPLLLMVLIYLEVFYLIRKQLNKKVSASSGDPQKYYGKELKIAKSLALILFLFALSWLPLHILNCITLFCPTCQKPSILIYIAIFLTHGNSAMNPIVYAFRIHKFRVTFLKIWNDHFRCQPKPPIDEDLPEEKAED
The test is described as follows: Inhibition of [3H]R-PIA binding to Adenosine A1 receptor from rat brain membrane.

For orientation: Ki means the equilibrium dissociation constant of an inhibitor or competing ligand from its target. Compound `CCNC(=O)[C@H]1OC(n2cnc3c(NC(=O)c4ccc(Cl)cc4Cl)ncnc32)[C@H](O)[C@@H]1O` (some centres undefined) showed a Ki of 16 nM.
Next, `CCNC(=O)[C@H]1OC(n2cnc3c(NC(=O)Nc4ccc(S(=O)(=O)Nc5ccccn5)cc4)ncnc32)[C@H](O)[C@@H]1O` (some centres undefined): 292 nM; `CCNC(O)[C@H]1O[C@@H](n2cnc3c(NC(=O)Nc4ccc(S(=O)(=O)Nc5cc(C)on5)cc4)ncnc32)[C@H](O)[C@@H]1O` (some centres undefined): 901 nM.
Then `CCNC(=O)[C@@H]1OC(n2cnc3c(NC(=O)Nc4ccc(S(=O)(=O)Nc5ncccn5)cc4)ncnc32)[C@@H](O)[C@H]1O` (some centres undefined), with 725 nM.
